Experiments:
[1] = test system: HBEGF locus; format: cell-based, human; details: dCasX491-KRAB lentiviral library, spacer 34.28, HEK293T, 2 ng/ml diphtheria toxin 48 hours
[2] = test system: B2M promoter; test: B2M repression with gRNAs tiled across the B2M promoter, dXR1 vs ELXR #1 (Example 10); format: cell-based, human; details: HEK293T, six days after lipofection, unlike the effects seen with dXR1
Description: ELXR #1 containing the ZIM3-KRAB domain, as described in Example 6, and dXR1, as described in Example 1, were assessed in this experiment. Various gRNAs with scaffold 174 containing a B2M-targeting spacer were used in this experiment.
The next day, cells were selected with puromycin for four additional days. […] HEK293T cells transfected with either ELXR #1 or dXR1 with a non-targeting gRNA was included as an experimental control. FIG. 21A is a schematic illustrating the tiling of the various B2M-targeting gRNAs (spacers listed in Table 31) within a ˜1 KB window of the B2M promoter.

Substance	log2 (fold change) in abundance of the KRAB domain before and after selection [1]	B2M repression (HLA-negative cells) mediated by ELXR #1 with the spacer [2]
Zim3: ZIM3 KRAB domain, SEQ ID NO: 337 [reference compound]	1.7787	
spacer 7.165: B2M-targeting, ELXR-specific spacer, UCCCUAUGUCCUUGCUGUUU, SEQ ID NO: 59667 (listed as RNA, chemistry not fully specified)		meaningful B2M repression
